According to US20260199323A1, “LIGAND COMPOUNDS FOR E3 UBIQUITIN LIGASE, PROTEIN DEGRADERS DEVELOPED ON BASIS OF LIGAND COMPOUNDS, AND USES THEREOF” (GLUETACS THERAPEUTICS (SHANGHAI) CO., LTD., priority 2021, published 2026):
Where two headings read alike, the source gives them in different places.

Tests used:
NCI-H1975 = experiment: CCK-8 tumor cell proliferation, NCI-H1975; type: cell-based, Human; conditions: for IC50: Homo sapiens, Table 15, ALK inhibitor based, NCI-H1975, read-out: IC50 inhibiting proliferation of tumor cells, NCI-H1975
Method: (§1) The tumor cells used herein were cultured in a cell culture medium listed in table 4 at 37° C. in an incubator with 5% CO2. Prior to experimentation, all cells used were correctly identified by STR profiling, and tested negative for mycoplasma through routine screenings.
(§2) IC50 values of the compounds of the present disclosure (including the compounds in Tables 1 and 3, and compounds of examples) were measured using the Meilun Cell Counting Kit-8 kit from Dalian Meilun Biotech Co., Ltd. Assay details are as follows: tumor cells were seeded in a 96-well plate at a density listed in Table 5. After 24 h, 100 μL of the inoculated cells were treated with 0.5 μL of the compounds of the present disclosure (including the compounds in Tables 1 and 3, and compounds of examples) at 10 different successively decreasing concentrations (starting at the highest concentration of 10 μM; 5-fold serial dilutions). After the cells were treated with the compounds of the present disclosure for a period of time, the cell viability detection reagent was added to the culture medium for cell viability assessment according to the instructions provided with the CCK-8 kit. […] The growth inhibition of the compounds of the present disclosure on cells was plotted by Prism Graphpad software, and the IC50 values of the compounds of the present disclosure were calculated therefrom.

NCI-H2228 = experiment: CCK-8 tumor cell proliferation, NCI-H2228; conditions: Homo sapiens, Table 15, ALK inhibitor based, read-out: IC50 inhibiting proliferation of tumor cells, NCI-H2228
Method: as §1, §2

SR = experiment: CCK-8 tumor cell proliferation, SR; type: cell-based, Human; conditions: Homo sapiens; Table 15, ALK inhibitor based; SR; read-out: IC50 inhibiting proliferation of tumor cells, SR
Procedure, shortened: (§3)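 Using the CCK-8 kit, viability of plated cells is assessed after exposure to compound across ten concentrations (5-fold serial dilution, top 10 μM) added at 24 h. IC50 is obtained by curve fitting of growth inhibition.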

MDA-MB-231 = experiment: CCK-8 tumor cell proliferation, MDA-MB-231; type: cell-based, Human; design: IC50 for inhibiting the proliferation of tumor cells, MDA-MB-231: scale not given here; conditions: for IC50: Homo sapiens, Table 15, ALK inhibitor based, MDA-MB-231, read-out: IC50 inhibiting proliferation of tumor cells, MDA-MB-231
Procedure, shortened: as §3

HCC827 = experiment: CCK-8 tumor cell proliferation, HCC827; type: cell-based, Human; conditions: Homo sapiens
Mino = experiment: CCK-8 tumor cell proliferation, Mino; type: cell-based, Human; conditions: Homo sapiens; Table 15, ALK inhibitor based; Mino; read-out: IC50 inhibiting proliferation of tumor cells, Mino
Procedure, shortened: as §3

PC-9 = experiment: CCK-8 tumor cell proliferation, PC-9; type: cell-based, Human; conditions: Homo sapiens
CAL-62 = experiment: CCK-8 tumor cell proliferation, CAL-62; type: cell-based, Human; conditions: Homo sapiens; Table 23, compared to Comparative Example compounds; CAL-62; read-out: Inhibitory activity (IC50, nM) against tumor cell proliferation, CAL-62
Procedure, shortened: as §3

MM.1R = experiment: CCK-8 tumor cell proliferation, MM.1R; type: cell-based; conditions: Table 23, compared to Comparative Example compounds, read-out: Inhibitory activity (IC50, nM) against tumor cell proliferation, MM.1R
Procedure, shortened: as §3

Jurkat = experiment: CCK-8 tumor cell proliferation, Jurkat; type: cell-based, Human; conditions: Homo sapiens, Table 23, compared to Comparative Example compounds, read-out: Inhibitory activity (IC50, nM) against tumor cell proliferation, Jurkat
Procedure, shortened: as §3

Vcap = experiment: CCK-8 tumor cell proliferation, Vcap; type: cell-based, Human; conditions: 96 h
Procedure, shortened: as §3

THP-1 = experiment: CCK-8 tumor cell proliferation, THP-1; type: cell-based, Human; conditions: 72 h
Method: as §1, §2

MM.1S = experiment: CCK-8 tumor cell proliferation, MM.1S; type: cell-based; conditions: Table 7, designed based on BTK inhibitors; 72 h
Procedure, shortened: as §3

CCRF-CEM = experiment: CCK-8 tumor cell proliferation, CCRF-CEM; type: cell-based, Human; design: IC50 for inhibiting the proliferation of tumor cells, CCRF-CEM: scale not given here; conditions: 96 h
Procedure, shortened: as §3

Kasumi-1 = experiment: CCK-8 tumor cell proliferation, Kasumi-1; type: cell-based, Human; conditions: Table 7, designed based on BTK inhibitors; 72 h
Procedure, shortened: as §3

MV-4-11 = experiment: CCK-8 tumor cell proliferation, MV-4-11; type: cell-based, Human; conditions: Homo sapiens, MV4-11; Table 15, ALK inhibitor based; MV-4-11; read-out: IC50 inhibiting proliferation of tumor cells, MV-4-11
Procedure, shortened: as §3

[1] = Table 15, ALK inhibitor based, HCC827, read-out: IC50 inhibiting proliferation of tumor cells, HCC827
[2] = Table 15, ALK inhibitor based, PC-9, read-out: IC50 inhibiting proliferation of tumor cells, PC-9
[3] = Table 7, designed based on BTK inhibitors
[4] = Table 7, designed based on BTK inhibitors, 96 h
[5] = Table 11, designed based on EGFR inhibitors

Structure (SMILES)	IC50 (NCI-H1975) [nM]	IC50 (NCI-H2228) [nM]	IC50 (SR) [nM]	IC50 (MDA-MB-231) [nM]	IC50 (Mino) [nM]	IC50 (PC-9; [2]) [nM]	further results
Cc1cc(Nc2ncc(Cl)c(Nc3ccccc3S(=O)(=O)C(C)C)n2)c(OC(C)C)cc1C1CCN(Cc2ccc3c(c2)CN(C2CCC(=O)NC2=O)C3=O)CC1 (centres unmarked) [GT-02973, 3-(5-((4-(4-((5-chloro-4-((2-(isopropylsulfonyl)phenyl)amino)pyrimidin-2-yl)amino)-5-isopropoxy-2-methylphenyl)piperidin-1-yl)methyl)-1-oxoisoindolin-2-yl)piperidine-2,6-dione]	–	100 to 500	< 50	500 to 1000	–	500 to 1000	–
COc1cc(N2CCC(NCc3ccc4c(c3)CN(C3CCC(=O)NC3=O)C4=O)CC2)ccc1Nc1ncc(Cl)c(Nc2ccccc2P(C)(C)=O)n1 (centres unmarked) [GT-03015, 3-(5-(((1-(4-((5-chloro-4-((2-(dimethylphosphoryl)phenyl)amino)pyrimidin-2-yl)amino)-3-methoxyphenyl)piperidin-4-yl)amino)methyl)-1-oxoisoindolin-2-yl)piperidine-2,6-dione]	50 to 100	100 to 500	–	–	–	–	–
COc1cc(N2CCC(N(C)Cc3ccc4c(c3)CN(C3CCC(=O)NC3=O)C4=O)CC2)ccc1Nc1ncc(Cl)c(Nc2ccccc2P(C)(C)=O)n1 (centres unmarked) [GT-03319, 3-(5-(((1-(4-((5-chloro-4-((2-(dimethylphosphoryl)phenyl)amino)pyrimidin-2-yl)amino)-3-methoxyphenyl)piperidin-4-yl)(methyl)amino)methyl)-1-oxoisoindolin-2-yl)piperidine-2,6-dione]	< 50	50 to 100	< 50	50 to 100	1000 to 5000	50 to 100	IC50 (CAL-62): < 50 nM; IC50 (MM.1R): 100 to 500 nM; IC50 (Jurkat): 1000 to 5000 nM; IC50 (HCC827; [1]): 50 to 100 nM
Nc1ncnc2c1c(-c1ccc(Oc3ccccc3)cc1)nn2C1CCN(Cc2ccc3c(c2F)CN(C2CCC(=O)NC2=O)C3=O)CC1 (centres unmarked) [GT-03472, 3-(5-((4-(4-amino-3-(4-phenoxyphenyl)-1H-pyrazolo[3,4-d]pyrimidin-1-yl)piperidin-1-yl)methyl)-4-fluoro-1-oxoisoindolin-2-yl)piperidine-2,6-dione]	–	–	–	–	–	–	IC50 for inhibiting the proliferation of tumor cells, Vcap (Vcap; [3]): A+; IC50 for inhibiting the proliferation of tumor cells, NCI-H1975 (NCI-H1975; [4]): A+; IC50 for inhibiting the proliferation of tumor cells, THP-1 (THP-1; [3]): A+; IC50 for inhibiting the proliferation of tumor cells, MDA-MB-231 (MDA-MB-231; [4]): A+; IC50 for inhibiting the proliferation of tumor cells, MM.1S (MM.1S): A+; IC50 for inhibiting the proliferation of tumor cells, CCRF-CEM (CCRF-CEM; [3]): A+; IC50 for inhibiting the proliferation of tumor cells, Kasumi-1 (Kasumi-1): A+
NC(=O)c1ccc(N2CCN(Cc3ccc4c(c3)CN(C3CCC(=O)NC3=O)C4=O)CC2)nc1-c1ccc(Oc2ccccc2)cc1 (centres unmarked) [GT-03636, 6-(4-((2-(2,6-dioxopiperidin-3-yl)-1-oxoisoindolin-5-yl)methyl)piperazin-1-yl)-2-(4-phenoxyphenyl)nicotinamide]	–	–	–	–	–	–	IC50 for inhibiting the proliferation of tumor cells, THP-1 (THP-1; [3]): A+
O=C1CCC(N2Cc3cc(CN4CCC(N5CCN(c6ccc(-c7cc(F)c8c(c7)C(=O)N(C(C(=O)Nc7nccs7)c7ncn9c7CCC9)C8)cc6)CC5)C(F)(F)C4)ccc3C2=O)C(=O)N1 (centres unmarked) [GT-04459, 2-(6,7-dihydro-5H-pyrrolo[1,2-c]imidazol-1-yl)-2-(6-(4-(4-(1-((2-(2,6-dioxopiperidin-3-yl)-1-oxoisoindolin-5-yl)methyl)-3,3-difluoropiperidin-4-yl)piperazin-1-yl)phenyl)-4-fluoro-1-oxoisoindolin-2-yl)-N-(thiazol-2-yl)acetamide]	–	–	–	–	–	–	IC50 for inhibiting the proliferation of tumor cells, Vcap (Vcap; [5]): A+; IC50 for inhibiting the proliferation of tumor cells, THP-1 (THP-1; [5]): A+; IC50 for inhibiting the proliferation of tumor cells, CCRF-CEM (CCRF-CEM; [5]): A+
COc1cc(N2CCC(N3CCN(C)CC3)CC2)ccc1Nc1ncc(Cl)c(Nc2ccccc2P(C)(C)=O)n1 [brigatinib, reference compound]	500 to 1000	100 to 500	< 50	500 to 1000	5000 to 10000	–	IC50 (HCC827; HCC827, read-out: IC50 inhibiting proliferation of tumor cells, HCC827): 100 to 500 nM; IC50 (PC-9; PC-9, read-out: IC50 inhibiting proliferation of tumor cells, PC-9): 1000 to 5000 nM

Further lines, with some results ahead:

IC50 (NCI-H1975) [nM]	IC50 (NCI-H2228) [nM]	IC50 (SR) [nM]	IC50 (MDA-MB-231) [nM]	IC50 (Mino) [nM]	IC50 (PC-9; [2]) [nM]	Structure (SMILES)	further results
100 to 500	1000 to 5000	–	–	–	–	COc1cc(N2CCC(N3CCN(Cc4ccc5c(c4)CN(C4CCC(=O)NC4=O)C5=O)CC3)CC2)ccc1Nc1ncc(Cl)c(Nc2ccccc2P(C)(C)=O)n1 (centres unmarked) [GT-02811, 3-(5-((4-(1-(4-((5-chloro-4-((2-(dimethylphosphoryl)phenyl)amino)pyrimidin-2-yl)amino)-3-methoxyphenyl)piperidin-4-yl)piperazin-1-yl)methyl)-1-oxoisoindolin-2-yl)piperidine-2,6-dione]	–
500 to 1000	500 to 1000	< 50	500 to 1000	500 to 1000	500 to 1000	CCc1cc2c(cc1N1CCC(N3CCN(Cc4ccc5c(c4)CN(C4CCC(=O)NC4=O)C5=O)CC3)CC1)C(C)(C)c1[nH]c3cc(C#N)ccc3c1C2=O (centres unmarked) [GT-02972, 8-(4-(4-((2-(2,6-dioxopiperidin-3-yl)-1-oxoisoindolin-5-yl)methyl)piperazin-1-yl)piperidin-1-yl)-9-ethyl-6,6-dimethyl-11-oxo-6,11-dihydro-5H-benzo[b]carbazole-3-carbonitrile]	IC50 (HCC827; [1]): 1000 to 5000 nM
–	1000 to 5000	< 50	1000 to 5000	–	1000 to 5000	CCc1cc2c(cc1N1CCN(Cc3ccc4c(c3)CN(C3CCC(=O)NC3=O)C4=O)CC1)C(C)(C)c1[nH]c3cc(C#N)ccc3c1C2=O (centres unmarked) [GT-03409, 8-(4-((2-(2,6-dioxopiperidin-3-yl)-1-oxoisoindolin-5-yl)methyl)piperazin-1-yl)-9-ethyl-6,6-dimethyl-11-oxo-6,11-dihydro-5H-benzo[b]carbazole-3-carbonitrile]	IC50 (HCC827; [1]): 1000 to 5000 nM
50 to 100	100 to 500	< 50	–	100 to 500	–	CCc1cc2c(cc1N1CCC(N3CCN(Cc4cc(F)c5c(c4)CN(C4CCC(=O)NC4=O)C5=O)CC3)CC1)C(C)(C)c1[nH]c3cc(C#N)ccc3c1C2=O (centres unmarked) [GT-03760, 8-(4-(4-((2-(2,6-dioxopiperidin-3-yl)-7-fluoro-1-oxoisoindolin-5-yl)methyl)piperazin-1-yl)piperidin-1-yl)-9-ethyl-6,6-dimethyl-11-oxo-6,11-dihydro-5H-benzo[b]carbazole-3-carbonitrile]	IC50 (MV-4-11): 500 to 1000 nM
1000 to 5000	1000 to 5000	< 50	1000 to 5000	5000 to 10000	100 to 500	CCc1cc2c(cc1N1CCC(N3CCOCC3)CC1)C(C)(C)c1[nH]c3cc(C#N)ccc3c1C2=O [alectinib, reference compound]	–
